For the data set the following is noted: Liquid; for mass density: 298.15 K, 101.33 kPa, Pycnometric method.
The mark [1] stands for this setting: Ebulliometric method (Recirculating still).

Numbers after ± are expanded uncertainties.

Turning to `CCCCO` [butan-1-ol], the mass density was 805.8 ± 0.7 kg/m3. In addition, under setting [1], the Normal boiling temperature is 117.70 ± 0.2 °C.

As for `CCO` [ethanol], the mass density is reported as 785.2 ± 0.7 kg/m3 and the Normal boiling temperature came to 78.29 ± 0.2 °C.

For `CCCO` [propan-1-ol], the mass density is 799.6 ± 0.7 kg/m3. Besides, under setting [1], the Normal boiling temperature stood at 97.06 ± 0.2 °C.

Take `CC(C)O` [propan-2-ol]: the mass density was found to be 780.8 ± 0.7 kg/m3. Further, the Normal boiling temperature under setting [1] was 82.2 ± 0.2 °C.

One may read the mass density as the mass of a sample divided by its volume.

(Values after the NIST ThermoML archive (doi:10.1021/je700316s).)
